Results on 31 compounds are retold here after US20200216439A1, “HETERO-1,5,6,7-TETRAHYDRO-4H-INDOL-4-ONES” (BAYER PHARMA AKTIENGESELLSCHAFT, priority 2015, published 2020).

As a reminder, the IC50 is the concentration needed to halve the response being measured.

The target in the test is T1, catalytic domain of human Bub1 (amino acids 704-1085) (Homo sapiens, UniProt O43683).
T1 construct: catalytic domain of human Bub1 (amino acids 704-1085); His6 (N); made in house; host or cells: Hi5 insect cells
T1 sequence (O43683 704-1085): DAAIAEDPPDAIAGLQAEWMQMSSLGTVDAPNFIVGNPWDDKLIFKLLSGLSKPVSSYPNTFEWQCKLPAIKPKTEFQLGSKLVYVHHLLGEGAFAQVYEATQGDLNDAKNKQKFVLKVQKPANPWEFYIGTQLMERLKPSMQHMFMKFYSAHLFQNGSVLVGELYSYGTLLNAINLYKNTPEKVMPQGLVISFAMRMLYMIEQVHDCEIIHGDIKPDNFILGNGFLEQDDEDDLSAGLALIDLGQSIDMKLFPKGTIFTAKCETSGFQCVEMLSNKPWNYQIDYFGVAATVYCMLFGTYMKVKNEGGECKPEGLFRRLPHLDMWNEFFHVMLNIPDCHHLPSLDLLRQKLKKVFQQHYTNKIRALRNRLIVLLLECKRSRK
In words: Bub1 kinase assay (TR-FRET). It counts as biochemical. The conditions noted are these: TR-FRET; ATP 10 μM, peptide substrate 1 μM; 60 min at 22° C.; average or median if tested more than once; read-out: Inhibition of Bub1 kinase IC50. The procedure, abridged: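 Eleven concentrations (0.1 nM–20 μM, duplicate) fitted by 4-parameter logistic for IC50. Read-out: EDTA-stopped TR-FRET (665/620 nm) detecting anti-phosphoserine binding to biotin-peptide (1 μM). Reaction used 10 μM ATP, 60 min at 22 °C, after 15 min compound preincubation with His-tagged human Bub1 704-1085.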
A general note: In TR-FRET formats the signal depends on donor and acceptor labels being close together.

For the compound `CNC(=O)N1CC(=O)c2c([nH]c(-c3ccnc(NC(C)=O)c3)c2Nc2ccc(F)cc2)C1` [Example 313, 2-[2-(Acetylamino)pyridin-4-yl]-3-[(4-fluorophenyl)amino]-N-methyl-4-oxo-1,4,5,7-tetrahydro-6H-pyrrolo[2,3-c]pyridine-6-carboxamide], the IC50 was determined as 17 nM.

For the compound `COc1ccc(C(=O)Nc2cc(-c3[nH]c4c(c3Nc3ccccc3)C(=O)CNC4)ccn2)cc1F` [Example 284, 3-Fluoro-4-methoxy-N-4-[4-oxo-3-(phenylamino)-4,5,6,7-tetrahydro-1H-pyrrolo[2,3-c]pyridin-2-yl]pyridin-2-ylbenzamide], the 50% inhibitory concentration (IC50) was found to be 52 nM.

As to `CC(C)(C)OC(=O)N1CC(=O)c2c([nH]c(-c3ccncc3C(F)(F)F)c2Nc2ccccc2)C1` [Example 298, tert-Butyl 4-oxo-3-(phenylamino)-2-[3-(trifluoromethyl)pyridin-4-yl]-1,4,5,7-tetrahydro-6H-pyrrolo[2,3-c]pyridine-6-carboxylate], the IC50 is 896 nM.

Consider `CC(C)(F)C(=O)Nc1cc(-c2[nH]c3c(c2Nc2ccccc2)C(=O)CNC3)ccn1` [Example 130, N-[4-(3-Anilino-4-oxo-4,5,6,7-tetrahydro-1H-pyrrolo[2,3-c]pyridin-2-yl)pyridin-2-yl]-2-fluoro-2-methylpropanamide], for which the IC50 amounted to 662 nM.

With `CC(C)OC(=O)N1CC(=O)c2c([nH]c(-c3ccnc(NC(=O)C4CC4(F)F)c3)c2Nc2ccccc2)C1` (racemic) [Example 158, Isopropyl 3-anilino-2-[2-({[(1RS)-2,2-difluorocyclopropyl]carbonyl}amino)pyridin-4-yl]-4-oxo-1,4,5,7-tetrahydro-6H-pyrrolo[2,3-c]pyridine-6-carboxylate], the IC50 is 8 nM.

In the case of `CC(=O)Nc1cc(-c2[nH]c3c(c2Nc2ccccc2)C(=O)CN(C(=O)N2CCCC2)C3)ccn1` [Example 126, N-{4-[3-Anilino-4-oxo-6-(pyrrolidin-1-ylcarbonyl)-4,5,6,7-tetrahydro-1H-pyrrolo[2,3-c]pyridin-2-yl]pyridin-2-yl}acetamide], the IC50 came out at 7 nM.

As for `CCNC(=O)Nc1cc(-c2[nH]c3c(c2Nc2ccccc2)C(=O)COC3)ccn1` [Example 54, 1-Ethyl-3-{4-[4-oxo-3-(phenylamino)-1,4,5,7-tetrahydropyrano[3,4-b]pyrrol-2-yl]pyridin-2-yl}urea], the half-maximal inhibitory concentration (IC50) amounted to 77 nM.

Consider `COc1cnccc1-c1[nH]c2c(c1Nc1ccccc1)C(=O)CN(C(=O)C(C)(C)C)C2` [Example 106, 6-(2,2-Dimethylpropanoyl)-2(3-methoxypyridin-4-yl)-3-(phenylamino)-1,5,6,7-tetrahydro-4H-pyrrolo[2,3-c]pyridin-4-one], for which the IC50 stood at 6 nM.

On to `O=C1CN(S(=O)(=O)c2cnc[nH]2)Cc2[nH]c(-c3ccnc(NC(=O)C4CC4(F)F)c3)c(Nc3ccccc3)c21` (racemic) [Example 164, (1RS)—N-{4-[3-Anilino-6-(1H-imidazol-5-ylsulfonyl)-4-oxo-4,5,6,7-tetrahydro-1H-pyrrolo[2,3-c]pyridin-2-yl]pyridin-2-yl}-2,2-difluorocyclopropanecarboxamide], for which the IC50 is 6 nM.

For the compound `COc1cnccc1-c1[nH]c2c(c1Nc1ccccc1)C(=O)CN(C(C)=O)C2` [Example 105, 6-Acetyl-2-(3-methoxypyridin-4-yl)-3-(phenylamino)-1,5,6,7-tetrahydro-4H-pyrrolo[2,3-c]pyridin-4-one], the concentration for half-maximal inhibition (IC50) was found to be 12 nM.

With `CS(=O)(=O)N1CC(=O)c2c([nH]c(-c3ccnc(NC(=O)c4cncs4)c3)c2Nc2ccccc2)C1` [Example 151], the IC50 came to 4 nM.

Take `CC(C)(C)OC(=O)N1CC(=O)c2c([nH]c(-c3ccnc(NC(=O)C4(F)CC4)c3)c2Nc2ccccc2)C1` [Example 131, tert-Butyl 3-anilino-2-{2-([(1-fluorocyclopropyl)carbonyl]amino}pyridin-4-yl)-4-oxo-1,4,5,7-tetrahydro-6H-pyrrolo[2,3-c]pyridine-6-carboxylate]: the IC50 worked out at 23 nM.

With `COc1cnccc1-c1[nH]c2c(c1Nc1ccccc1)C(=O)CSC2` [Example 39, 2-(3-Methoxypyridin-4-yl)-3-(phenylamino)-1,7-dihydrothiopyrano[3,4-b]pyrrol-4(5H)-one], the IC50 worked out at 81 nM.

For the compound `COCCOc1cnccc1-c1[nH]c2c(c1Nc1ccccc1)C(=O)CN(C(=O)OC(C)(C)C)C2` [Example 222, tert-Butyl 3-anilino-2-[3-(2-methoxyethoxy)pyridin-4-yl]-4-oxo-1,4,5,7-tetrahydro-6H-pyrrolo[2,3-c]pyridine-6-carboxylate], the IC50 was 9 nM.

For the compound `CCOC(=O)N1CC(=O)c2c([nH]c(-c3ccnc(NC(C)=O)c3)c2Nc2ccccc2)C1` [Example 183, Ethyl 2-(2-acetamidopyridin-4-yl)-3-anilino-4-oxo-1,4,5,7-tetrahydro-6H-pyrrolo[2,3-c]pyridine-6-carboxylate], the IC50 was found to be 9 nM.

Regarding `COCC(=O)Nc1cc(-c2[nH]c3c(c2Nc2ccccc2)C(=O)COC3)ccn1` [Example 45, 2-Methoxy-N-{4-[4-oxo-3-(phenylamino)-1,4,5,7-tetrahydropyrano[3,4-b]pyrrol-2-yl]pyridin-2-yl}acetamide], the IC50 was found to be 59 nM.

Consider `O=C(Nc1cc(-c2[nH]c3c(c2Nc2ccccc2)C(=O)COC3)ccn1)c1cscn1` [Example 49, N-{4-[4-Oxo-3-(phenylamino)-1,4,5,7-tetrahydropyrano[3,4-b]pyrrol-2-yl]pyridin-2-yl}-1,3-thiazole-4-carboxamide], for which the IC50 was 51 nM.

For `O=C1COCc2[nH]c(-c3ccncc3)c(Nc3ccccc3)c21` [Example 6, 3-(phenylamino)-2-(pyridin-4-yl)-1,7-dihydropyrano[3,4-b]pyrrol-4(5H)-one], the IC50 was found to be 42 nM.

Regarding `CN1CCN(C(=O)N2CC(=O)c3c([nH]c(-c4ccncc4OCC(F)F)c3Nc3ccccc3)C2)CC1` [Example 240, 2-[3-(2,2-Difluoroethoxy)pyridin-4-yl]-6-[(4-methylpiperazin-1-yl)carbonyl]-3-(phenylamino)-1,5,6,7-tetrahydro-4H-pyrrolo[2,3-c]pyridin-4-one], the IC50 came to 66 nM.

As for `COc1ccc(C(=O)Nc2cc(-c3c(Nc4ccccc4)c4c(n3C)CN(C(C)=O)CC4=O)ccn2)cc1F` [Example 288, N-4-[6-Acetyl-1-methyl-4-oxo-3-(phenylamino)-4,5,6,7-tetrahydro-1H-pyrrolo[2,3-c]pyridin-2-yl]pyridin-2-yl-3-fluoro-4-methoxybenzamide], the IC50 was 404 nM.

As to `CS(=O)(=O)CCNC(=O)N1CC(=O)c2c([nH]c(-c3ccncc3)c2Nc2ccccc2)C1` [Example 89, N-[2-(Methylsulfonyl)ethyl]-4-oxo-3-(phenylamino)-2-(pyridin-4-yl)-1,4,5,7-tetrahydro-6H-pyrrolo[2,3-c]pyridine-6-carboxamide], the IC50 is 31 nM.

Consider `O=C1CN(C(=O)N2CCOCC2)Cc2[nH]c(-c3ccncc3OCC(F)F)c(Nc3ccccc3)c21` [Example 239, 2-[3-(2,2-Difluoroethoxy)pyridin-4-yl]-6-(morpholin-4-ylcarbonyl)-3-(phenylamino)-1,5,6,7-tetrahydro-4H-pyrrolo[2,3-c]pyridin-4-one], for which the IC50 was found to be 20 nM.

Regarding `O=C1CN(C(=O)c2ccccn2)Cc2[nH]c(-c3ccncc3)c(Nc3ccccc3)c21` [Example 61, 3-(phenylamino)-2-(pyridin-4-yl)-6-(pyridin-2-ylcarbonyl)-1,5,6,7-tetrahydro-4H-pyrrolo[2,3-c]pyridin-4-one], the IC50 amounted to 40 nM.

Regarding `CN(C)C(=O)N1CC(=O)c2c([nH]c(-c3ccncc3)c2Nc2ccccc2)C1` [Example 82], the IC50 was determined as 4 nM.

Consider `COC(=O)N1CC(=O)c2c([nH]c(-c3ccnc(NC(=O)C(C)(C)F)c3)c2Nc2ccccc2)C1` [Example 144, Methyl 3-anilino-2-{2-[(2-fluoro-2-methylpropanoyl)amino]pyridin-4-yl}-4-oxo-1,4,5,7-tetrahydro-6H-pyrrolo[2,3-c]pyridine-6-carboxylate], for which the IC50 came to 20 nM.

`CC(=O)Nc1cc(-c2[nH]c3c(c2Nc2ccccc2)C(=O)CN(C(=O)c2ncco2)C3)ccn1` [Example 199, N-4-[6-(1,3-Oxazol-2-ylcarbonyl)-4-oxo-3-(phenylamino)-4,5,6,7-tetrahydro-1H-pyrrolo[2,3-c]pyridin-2-yl]pyridin-2-ylacetamide]: the half-maximal inhibitory concentration (IC50) worked out at 20 nM.

Regarding `CC(=O)Nc1cc(-c2[nH]c3c(c2Nc2ccccc2)C(=O)CN(C(=O)c2cnco2)C3)ccn1` [Example 176, N-{4-[3-Anilino-6-(1,3-oxazol-5-ylcarbonyl)-4-oxo-4,5,6,7-tetrahydro-1H-pyrrolo[2,3-c]pyridin-2-yl]pyridin-2-yl}acetamide], the half-maximal inhibitory concentration (IC50) turned out to be 16 nM.

Turning to `CC(=O)Nc1cc(-c2[nH]c3c(c2Nc2ccccc2)C(=O)CN(C(=O)C(C)(C)C)C3)ccn1` [Example 181, N-{4-[3-Anilino-6-(2,2-dimethylpropanoyl)-4-oxo-4,5,6,7-tetrahydro-1H-pyrrolo[2,3-c]pyridin-2-yl]pyridin-2-yl}acetamide], the 50% inhibitory concentration (IC50) is 5 nM.

Take `CC(=O)Nc1cc(-c2[nH]c3c(c2Nc2ccc(F)cc2)C(=O)CN(S(C)(=O)=O)C3)ccn1` [Example 311, N-(4-(3-[(4-Fluorophenyl)amino]-6-(methylsulfonyl)-4-oxo-4,5,6,7-tetrahydro-1H-pyrrolo[2,3-c]pyridin-2-yl)pyridin-2-yl)acetamide]: the IC50 came to 4 nM.

Take `CC(=O)Nc1cc(-c2[nH]c3c(c2Nc2ccccc2)C(=O)CN(C(=O)N(C)C)C3)ccn1` [Example 124, 2-(2-Acetamidopyridin-4-yl)-3-anilino-N,N-dimethyl-4-oxo-1,4,5,7-tetrahydro-6H-pyrrolo[2,3-c]pyridine-6-carboxamide]: the IC50 amounted to 4 nM.

For `CC(C)(C)C(=O)N1CC(=O)c2c([nH]c(-c3ccnc(NC(=O)[C@@H]4C[C@@H]4F)c3)c2Nc2ccccc2)C1` [Example 213], the IC50 was found to be 2 nM.
